The values that follow are results of earlier work, collected in US20070025931A1, “Powdery preparations containing 2.4.6-trianilino-p-(carbo-2'-ethylhexyl-1'-oxi)-1.3.5-triazine” (BASF Aktiengesellschaft, priority 2004, published 2007).

For this data set the following is noted: at 314 nm.

With `CCCCC(CC)COC(=O)c1ccc(Nc2nc(Nc3ccc(C(=O)OCC(CC)CCCC)cc3)nc(Nc3ccc(C(=O)OCC(CC)CCCC)cc3)n2)cc1` (stereo not shown) [Uvinul® T150, 2,4,6-Trianilino-p-(carbo-2′-ethylhexyl-1′-oxy)-1,3,5-triazine], the absorbance coefficient is on record as more than 1500.
